1 compound from the NIST ThermoML archive (doi:10.1016/j.jct.2016.10.020) can be followed below.

For series [1] the following is noted: Crystal; DTA.
The nature of series [2]: Molar enthalpy of transition or fusion. Conditions: Crystal; DSC.

Structures are written as SMILES. Numbers after ± are expanded uncertainties.

Regarding `COc1cc(Cl)nc(N)n1` [2-amino-4-chloro-6-methoxypyrimidine], the Normal melting temperature in series [1] is 173.80 ± 1.1 °C. In addition, the “Molar enthalpy of transition or fusion” value in series [2] is 5.93 ± 0.239 kcal/mol.
